# Organism: Rattus norvegicus
# Experiment: Open TG-GATES - Regimen: Single
# Type: toxicity, organism-based, Sprague-Dawley
# Parameters: regimen Single, gender Male, age 6 weeks
# Details: in vivo, po, route gavage; for Bas / Eos / Fbg / Hb / Ht / Lym / MCHC / MCV / Mono / Neu / PT / Plat / RBC / Ret / WBC / APTT: tissue Blood; for KIDNEY_L / KIDNEY_R / KIDNEY_TOTAL: tissue Kidney; for LIVER: tissue Liver; for ALP / ALT / AST / BUN / CRE / Ca / Cl / DBIL / GLC / IP / K / LDH / Na / PL / RALB / TBIL / TG / TP / gamma-GTP: tissue Plasma
# [1] = 100 mg/kg, 24 h, dose level Low
# [2] = 300 mg/kg, 3 h, dose level Middle
compound,measurement,setting,value
CN(C)C(=N)N=C(N)N [METFORMIN],Bas,"100 mg/kg, 9 h, dose level Low",0%
same,Eos,"100 mg/kg, 9 h, dose level Low",1%
same,Fbg,"100 mg/kg, 9 h, dose level Low",233.4 mg/dL
same,Hb,"100 mg/kg, 9 h, dose level Low",13 g/dL
same,Ht,"100 mg/kg, 9 h, dose level Low",38.8%
same,Lym,"100 mg/kg, 9 h, dose level Low",75.2%
same,MCHC,"100 mg/kg, 9 h, dose level Low",33.4%
same,MCV,"100 mg/kg, 9 h, dose level Low",64 fL
same,Mono,"100 mg/kg, 9 h, dose level Low",2.8%
same,Neu,"100 mg/kg, 9 h, dose level Low",20.4%
same,PT,"100 mg/kg, 9 h, dose level Low",12.6 s
same,Plat,"100 mg/kg, 9 h, dose level Low",114.4 x10_4/uL
same,RBC,"100 mg/kg, 9 h, dose level Low",607.4 x10_4/ul
same,Ret,"100 mg/kg, 9 h, dose level Low",9%
same,WBC,"100 mg/kg, 9 h, dose level Low",79.5 x10_2/uL
same,KIDNEY_L,"100 mg/kg, 9 h, dose level Low",0.9 g
same,KIDNEY_R,"100 mg/kg, 9 h, dose level Low",0.9 g
same,KIDNEY_TOTAL,"100 mg/kg, 9 h, dose level Low",1.8 g
same,LIVER,"100 mg/kg, 9 h, dose level Low",7.2 g
same,ALP,"100 mg/kg, 9 h, dose level Low",1288.4 IU/L
same,ALT,"100 mg/kg, 9 h, dose level Low",46.6 IU/L
same,AST,"100 mg/kg, 9 h, dose level Low",75 IU/L
same,BUN,"100 mg/kg, 9 h, dose level Low",9.8 mg/dL
same,CRE,"100 mg/kg, 9 h, dose level Low",0.1 mg/dL
same,Ca,"100 mg/kg, 9 h, dose level Low",10.7 mg/dL
same,Cl,"100 mg/kg, 9 h, dose level Low",105.4 meq/L
same,DBIL,"100 mg/kg, 9 h, dose level Low",0.01 mg/dL
same,GLC,"100 mg/kg, 9 h, dose level Low",166.4 mg/dL
same,IP,"100 mg/kg, 9 h, dose level Low",10.2 mg/dL
same,K,"100 mg/kg, 9 h, dose level Low",4.2 meq/L
same,LDH,"100 mg/kg, 9 h, dose level Low",49 IU/L
same,Na,"100 mg/kg, 9 h, dose level Low",140 meq/L
same,PL,"100 mg/kg, 9 h, dose level Low",118.4 mg/dL
same,RALB,"100 mg/kg, 9 h, dose level Low",2.5 g/dL
same,TBIL,"100 mg/kg, 9 h, dose level Low",0.044 mg/dL
same,TG,"100 mg/kg, 9 h, dose level Low",30 mg/dL
same,TP,"100 mg/kg, 9 h, dose level Low",5.1 g/dL
same,gamma-GTP,"100 mg/kg, 9 h, dose level Low",1 IU/L
same,TERMINAL_BW,[1],208.9 g
same,APTT,[1],16.6 s
same,Bas,[1],0%
same,Eos,[1],1%
same,Fbg,[1],242.6 mg/dL
same,Hb,[1],13 g/dL
same,Ht,[1],38.6%
same,Lym,[1],75%
same,MCHC,[1],33.6%
same,MCV,[1],64.8 fL
same,Mono,[1],3.6%
same,Neu,[1],19.8%
same,PT,[1],12.4 s
same,Plat,[1],109.9 x10_4/uL
same,RBC,[1],596 x10_4/ul
same,Ret,[1],8.8%
same,WBC,[1],95.2 x10_2/uL
same,KIDNEY_L,[1],0.9 g
same,KIDNEY_R,[1],0.9 g
same,KIDNEY_TOTAL,[1],1.8 g
same,LIVER,[1],10.1 g
same,ALP,[1],1691 IU/L
same,ALT,[1],51.6 IU/L
same,AST,[1],80.8 IU/L
same,BUN,[1],14.6 mg/dL
same,CRE,[1],0.2 mg/dL
same,Ca,[1],11.3 mg/dL
same,Cl,[1],105.2 meq/L
same,DBIL,[1],0.016 mg/dL
same,GLC,[1],173.6 mg/dL
same,IP,[1],8.5 mg/dL
same,K,[1],3.9 meq/L
same,LDH,[1],81 IU/L
same,Na,[1],142.6 meq/L
same,PL,[1],140 mg/dL
same,RALB,[1],2.6 g/dL
same,TBIL,[1],0.034 mg/dL
same,TG,[1],99 mg/dL
same,TP,[1],5.5 g/dL
same,gamma-GTP,[1],1.2 IU/L
same,TERMINAL_BW,[2],201.8 g
same,APTT,[2],15.4 s

# Reference: ChEMBL document CHEMBL3885861, “Open TG-GATES”
